These results are taken from US9481669B2, “Pladienolide pyridine compounds and methods of use” (Eisai R&D Management Co., Ltd., priority 2014, dated 2016).

Entries after “also recorded” stand apart in the source; their conditions may differ. Read-outs that look alike come from different tables or passages of the source.

In series [1] the test system is WiDr cells (colon cancer cells, wildtype SF3B1). The experiment in a line: Cell viability assay (CellTiter-Glo, 72 hr), WiDr. In kind it is cell-based. Particulars: Homo sapiens. The method, then:
(§1) Cells (WiDr and Panc05.04 obtained from ATCC) were seeded in 96-well plates, with 2000 cells/100 μL/well, and incubated overnight. Spent media was removed, and fresh media containing 9 different concentrations of compound (100 μL/well) were added, with DMSO concentration from compound stock solution adjusted to be 0.1%. Each compound treatment was done in duplicate or triplicate at each concentration.
(§2) Another plate with cells seeded was dedicated as a time zero (Tz) plate, to which was added 0.1% DMSO in media (100 μL/well) followed by CellTiter-Glo® reagent (Promega Corporation, Madison, Wis.) (50 μL/well) for ATP measurement as a surrogate of cell viability. Average value from measurement of multiple wells of this plate is used as Tz.
(§3) Compound-treated plates were incubated for 72 hr at 37° C. Then, CellTiter-Glo® reagent (50 μL/well) was added and ATP was measured. Average value from measurement of the duplicate or triplicate compound-treated wells is used as Ti, and seeded plates with medium having 0.1% DMSO without compound is used as control growth (C).
(§4) Percentage growth inhibition/Percentage viability was calculated as: [(Ti−Tz)/(C−Tz)]×100 for concentrations for which Ti>/=Tz [(Ti−Tz)/Tz]×100 for concentrations for which Ti<Tz. *time zero (Tz), control growth (C), and test growth in the presence of compound (Ti) Percentage growth inhibition/Percentage viability are plotted versus compound concentration to determine Emax.
(§5) Growth inhibition of 50% (GI50) was calculated from [(Ti−Tz)/(C−Tz)]×100=50, which is the drug concentration resulting in a 50% reduction in the net increase of ATP in control growth (C) during the compound treatment.
(§6) The counter-screening of compounds in this viability assay with a “resistant” WiDr-R cell line may indicate whether these compounds have off-target effect(s).
Background: In ATP-based viability assays light output follows the ATP content of the culture.

Series [2] is described as follows: pH stability measurement (UPLC, 0.1 N HCl). In kind it is physicochemical. Conditions: 0.1 N HCl, pH 1, 24 hours. The procedure: Compounds were provided in 96-well plates and tested in triplicate. Four microliters of a 10 mM stock solution of compound in DMSO were distributed into each of three wells. The plate was stored at or below −20° C. until the day of the analysis. Methanol (HPLC grade) and 0.1 N HCl (EMD catalog HX0603A-6) were used for dilutions. Acetonitrile (HPLC grade), water (Milli-Q filtered), trifluoroacetic acid (spectral grade) and 0.2M phosphate buffer (Wako, catalog no. 163-14471) were used to prepare the mobile phase for the two analyses.
Stability data was obtained using a Waters Acquity UPLC equipped with a UV detector (Waters TUV) and single quadrupole MS detector (Waters SQD). The 96-well plate containing the compound(s) of interest was(were) removed from the freezer and allowed to warm to room temperature for one hour. The UPLC was primed, equilibrated and the system performance was verified by injecting a standard. After 1 hour, each of the three wells was diluted with 266 μL 0.1 N HCl to give pH=1. The plate was covered and placed on a shaker (Eppindorf Thermomixer R) for 45 minutes at 600 rpm. The plate was removed from the shaker, and the contents of each well were filtered through a filtration plate (Millipore catalog no. MSSLBPC50) by vacuum and injected into the UPLC. After approximately 24 hours, the contents of the wells were re-injected into the UPLC.
Stability in the various buffers was measured by comparing the peak area- % of the analyte in methanol versus the peak area- % of the analyte at the same retention time in 0.1 N HCl buffer in the 24 hr time point injection.

Series [3] relates to WiDr-R cells (colon cancer cells, SF3B1 R1074H mutation). The experiment in a line: Cell viability assay (CellTiter-Glo, 72 hr), WiDr-R counter-screen. It counts as cell-based. The procedure:
as §1, §2, §3, §4, §5, §6

Series [4] is described as follows: Mouse pharmacokinetic (PK) study. It counts as in vivo, CD-1 mice. Particulars: for oral bioavailability and pharmacokinetic properties (in words): mouse model, IV and PO dosing; for AUC: read-out: AUCfinite; for Vd: read-out: Vss. The procedure:
Compound 2 was dosed at 5 mg/kg IV (intravenous) or 10 mg/kg PO (oral administration) to CD-1 mice. Following administration, blood samples were collected at pre-determined time points from five mice via serial bleeding of the tail vein. Blood was collected at 0.083 (0.167 PO only), 0.5, 1, 2, 4, 6, 8, and 24 hours post administration. The blood samples were centrifuged at 5000 RPM for 5 minutes to collect plasma within 30 minutes of blood collection. After extraction, samples were assayed using LCMS. PK parameters were calculated using non-compartmental analysis in WinNonlin v6.3.
Compound 1 was dosed at 5 mg/kg IV or 12 mg/kg PO to CD-1 mice. Following administration, blood samples were collected at pre-determined time points from five mice via serial bleeding from the tail vein. Blood was collected at 0.083 (0.167 PO only), 0.5, 1, 2, 4, 6, 8, and 24 hours post-dose. The blood samples were centrifuged at 5000 RPM for 5 minutes to collect plasma within 30 minutes of blood collection. After extraction, samples were assayed using LCMS. PK parameters were calculated using non-compartmental analysis in WinNonlin v6.3.
Compound 3 was dosed at 5.964 mg/kg IV or 13.307 mg/kg PO to CD-1 mice. Following administration, blood samples were collected at pre-determined time points from five mice via serial bleeding from the tail vein. Blood was collected at 0.083 (0.167 PO only), 0.5, 1, 2, 4, 6, 8, and 24 hours post-dose. The blood samples were centrifuged at 5000 RPM for 5 minutes to collect plasma within 30 minutes of blood collection. After extraction, samples were assayed using LCMS. PK parameters were calculated using non-compartmental analysis in WinNonlin v6.3.
Compound 4 was dosed at 5 mg/kg IV or 10 mg/kg PO to CD-1 mice. Following administration, blood samples were collected at pre-determined time-points from five mice via serial bleeding from the tail vein. Blood was collected at 0.083 (0.167 PO only), 0.5, 1, 2, 4, 6, 8, and 24 hours post-dose. The blood samples will be centrifuged at 5000 RPM for 5 minutes to collect plasma within 30 minutes of blood collection. After extraction, samples were assayed using LCMS. PK parameters were calculated using non-compartmental analysis in WinNonlin v6.3.

In series [5] the test system is Panc 05.04 cells (mt SF3B1; Q699H and K700E mutations in SF3B1). In words: Cell viability assay (CellTiter-Glo, 72 hr), Panc 05.04. In kind it is cell-based. Conditions: Panc 05.04, 72 hr; for Emax: negative value indicates cellular lethality. The method, then: as §1, §2, §3, §4, §5
Emax refers to the maximum achievable response to a compound in a tested dose range, with a negative value indicating cellular lethality. A larger negative Emax value indicates greater cellular lethality for a particular compound.

Where [6] appears, read: mouse, plasma, CD-1 mice, 5.964 mg/kg IV.
Where [7] appears, read: mouse, plasma, CD-1 mice, 13.307 mg/kg PO.
The mark [8] stands for this setting: mouse, plasma, CD-1 mice, 5 mg/kg IV.
Setting [9] is: mouse, plasma, CD-1 mice, 10 mg/kg PO.

Consider `C/C(=C\C=C\[C@@H](C)c1ccccn1)[C@H]1OC(=O)C[C@H](O)CC[C@@](C)(O)[C@@H](OC(=O)N2CCC(N3CCCCCC3)CC2)/C=C/[C@@H]1C` [Compound 3, (2S,3S,6S,7R,10R,E)-7,10-dihydroxy-3,7-dimethyl-12-oxo-2-((R,2E,4E)-6-(pyridin-2-yl)hepta-2,4-dien-2-yl)oxacyclododec-4-en-6-yl 4-(azepan-1-yl)piperidine-1-carboxylate], for which, in series [1], growth was halved (GI50) at 26.3 nM. The “% parent remaining (pH = 1, 24 hours)” value in series [2] was 98%. Moreover, the GI50 (usually the concentration that inhibits growth by half) in series [3] was over 1000 nM. The molecule further registered an AUC0-inf/D in series [4] (CD-1 mice, 5.964 mg/kg IV) of 1.047 μg/mL * hr/D. Moreover, in series [4] (CD-1 mice, 13.307 mg/kg PO), the AUC0-inf/D is reported as 0.615 μg/mL * hr/D and the “BA (%)” value amounted to 58.758%. The “oral bioavailability and pharmacokinetic properties (in words)” value in series [4] is “showed oral bioavailability and favorable pharmacokinetic properties; also recorded: possess oral bioavailability and favorable pharmacokinetic properties”. For the same molecule, in series [4] (setting [6]), the AUC(0-inf) (usually total exposure, with the tail of the curve extrapolated) was 6240 ng·h/mL; the half-life (in general, how long it takes for the measured level to halve) is 3.66 h; the AUC came to 6210 ng·h/mL; the Vd amounted to 2.98 L/kg. Also, the clearance in series [4] (mouse, plasma, CD-1 mice, 5.964 mg/kg IV, read-out: CLtot (converted)) is 15.9 mL/min/kg. Besides, in series [4] (setting [7]), the AUC(0-inf) amounted to 8190 ng·h/mL; the maximum concentration (Cmax) (as a rule, the maximum level reached in the sampled fluid or tissue) was 1570 ng/mL; the Tmax (commonly the time from dosing to the highest level) came out at 2 h; the half-life was 3.32 h. The AUC in series [4] (setting [7]) was determined as 8140 ng·h/mL. Also, in series [5], halving of growth (GI50) required 20.8 nM and the Emax is -90.8%.

Take `C/C(=C\C=C\[C@@H](C)c1ccccn1)[C@H]1OC(=O)C[C@H](O)CC[C@@](C)(O)[C@@H](OC(=O)N2CCN(C)CC2)/C=C/[C@@H]1C` [Compound 2, (2S,3 S,6S,7R,10R,E)-7,10-dihydroxy-3,7-dimethyl-12-oxo-2-((R,2E,4E)-6-(pyridin-2-yl)hepta-2,4-dien-2-yl)oxacyclododec-4-en-6-yl 4-methylpiperazine-1-carboxylate]: growth in series [1] was halved (GI50) at 31.8 nM. Also, in series [2], the “% parent remaining (pH = 1, 24 hours)” value amounted to 96%. In series [3], this molecule registered a GI50 of over 1000 nM. The molecule also showed an AUC0-inf/D in series [4] (CD-1 mice, 5 mg/kg IV) of 632.71 ng · h/mL/D. In series [4] (CD-1 mice, 10 mg/kg PO), this molecule had an AUC0-inf/D of 254.49 ng · h/mL/D and a Cmax/D of 84.07 ng/mL/D. Besides, the “oral bioavailability and pharmacokinetic properties (in words)” value in series [4] is “shows oral bioavailability and favorable pharmacokinetic properties; also recorded: possess oral bioavailability and favorable pharmacokinetic properties”. Further, in series [4] (setting [8]), the AUC(0-inf) was 3160 ng·h/mL; the AUC(0-t) – broadly, the area under the concentration-time curve up to a stated or last time point – came out at 3160 ng·h/mL; the half-life was 3.88 h; the Vd was 2.37 L/kg. The clearance in series [4] (mouse, plasma, CD-1 mice, 5 mg/kg IV, read-out: CL (converted)) was 26.3 mL/min/kg. Further, in series [4] (setting [9]), the AUC(0-inf) was 2540 ng·h/mL, the AUC(0-t) is 2510 ng·h/mL, the Cmax was determined as 841 ng/mL and the time to peak (Tmax) turned out to be 1 h. In series [4] (setting [9]), the bioavailability (as a rule, the share of a dose that reaches the circulation, judged against a reference dose that is usually intravenous) was 40.2% and the half-life is 4.04 h. In series [5], growth was halved (GI50) at 32.7 nM and the Emax was -66.1%.
